Measurements as given in ChEMBL document CHEMBL1201862, “PubChem BioAssay data set” (2004).
“And” between values parts separate entries of the source, which are not always exact repeats. Identical values can stand only once.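 Test compounds were applied to cells in 96-well plates for 48 hours at 5 doses. At the GI50, growth is halved.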 The source made the active and inactive calls. No stated cut-off is given here; in the data, active = GI50 up to about 1.1 µM and inactive = higher.

Tests used:
Test in all cases: inhibition of tumour cell growth, NCI panel, 48 h
NCI-H226 = tested on: NCI-H226
NCI/ADR-RES = tested on: NCI/ADR-RES
SN12C = tested on: SN12C
CAKI-1 = tested on: CAKI-1
MOLT-4 = tested on: MOLT-4
CCRF-CEM = tested on: CCRF-CEM
Hs-578T = tested on: Hs-578T
PC-3 = tested on: PC-3
K562 = tested on: K562
DU-145 = tested on: DU-145
HCC 2998 = tested on: HCC 2998
SNB-75 = tested on: SNB-75
UACC-257 = tested on: UACC-257
SK-MEL-28 = tested on: SK-MEL-28
MDA-MB-231 = tested on: MDA-MB-231
SF-539 = tested on: SF-539
SK-OV-3 = tested on: SK-OV-3
SK-MEL-5 = tested on: SK-MEL-5
MDA-N = tested on: MDA-N
RPMI-8226 = tested on: RPMI-8226
A549 = tested on: A549
HOP-92 = tested on: HOP-92
BT-549 = tested on: BT-549
OVCAR-8 = tested on: OVCAR-8
HOP-62 = tested on: HOP-62
SF-268 = tested on: SF-268
HT-29 = tested on: HT-29
U-251 = tested on: U-251
SF-295 = tested on: SF-295
KM12 = tested on: KM12
HCT-15 = tested on: HCT-15
786-0 = tested on: 786-0
A498 = tested on: A498
SNB-19 = tested on: SNB-19
OVCAR-4 = tested on: OVCAR-4
NCI-H460 = tested on: NCI-H460
RXF 393 = tested on: RXF 393
IGROV-1 = tested on: IGROV-1
COLO 205 = tested on: COLO 205
LOX IMVI = tested on: LOX IMVI
EKVX = tested on: EKVX
HCT-116 = tested on: HCT-116
MCF7 = tested on: MCF7
TK-10 = tested on: TK-10
SW-620 = tested on: SW-620
M14 = tested on: M14
ACHN = tested on: ACHN
SK-MEL-2 = tested on: SK-MEL-2
Malme-3M = tested on: Malme-3M
MDA-MB-435 = tested on: MDA-MB-435
NCI-H522 = tested on: NCI-H522
OVCAR-5 = tested on: OVCAR-5
UACC-62 = tested on: UACC-62
SR = tested on: SR
HL-60 = tested on: HL-60
OVCAR-3 = tested on: OVCAR-3
NCI-H23 = tested on: NCI-H23

## CCOC(=O)[C@]1(OC(C)=O)C[C@H](OC(C)=O)[C@@H](C(F)COP(=O)(OCc2ccccc2)OCc2ccccc2)O1 (stereo partly drawn)
NCI-H226
  GI50: > 100 µM (inactive)
NCI/ADR-RES
  GI50: > 100 µM (inactive)
SN12C
  GI50: > 100 µM (inactive)
CAKI-1
  GI50: > 100 µM (inactive)
MOLT-4
  GI50: > 100 µM (inactive)
CCRF-CEM
  GI50: 72.9 µM (inactive) and 49 µM (inactive)
Hs-578T
  GI50: > 100 µM (inactive)
PC-3
  GI50: 32.4 µM (inactive) and 58.6 µM (inactive)
K562
  GI50: 71.4 µM (inactive)
DU-145
  GI50: > 100 µM (inactive)
HCC 2998
  GI50: 76.2 µM (inactive)
SNB-75
  GI50: > 100 µM (inactive)
UACC-257
  GI50: 76.2 µM (inactive)
SK-MEL-28
  GI50: > 100 µM (inactive)
MDA-MB-231
  GI50: 57.3 µM (inactive)
SF-539
  GI50: > 100 µM (inactive)
SK-OV-3
  GI50: > 100 µM (inactive)
SK-MEL-5
  GI50: > 100 µM (inactive)
MDA-N
  GI50: > 100 µM (inactive)
RPMI-8226
  GI50: 19.8 µM (inactive) and 25.9 µM (inactive)
A549
  GI50: > 100 µM (inactive)
HOP-92
  GI50: 18.5 µM (inactive)
BT-549
  GI50: > 100 µM (inactive)
OVCAR-8
  GI50: > 100 µM (inactive)
HOP-62
  GI50: > 100 µM (inactive)
SF-268
  GI50: > 100 µM (inactive)

## COc1ccc(-c2c(C#N)c(-c3ccc(C)cc3)n(NS(=O)(=O)c3ccc(C)cc3)c(=O)c2C#N)cc1
HT-29
  GI50: 44.1 µM (inactive)
U-251
  GI50: 53.6 µM (inactive)
NCI-H226
  GI50: > 100 µM (inactive)
SF-295
  GI50: 37.8 µM (inactive)
NCI/ADR-RES
  GI50: 53.7 µM (inactive)
KM12
  GI50: 24.8 µM (inactive)
HCT-15
  GI50: 60.3 µM
786-0
  GI50: 86.5 µM (inactive)
A498
  GI50: 92 µM (inactive)
SNB-19
  GI50: 47.4 µM (inactive)
OVCAR-4
  GI50: 31.3 µM (inactive)
NCI-H460
  GI50: 54.3 µM (inactive)
SN12C
  GI50: 66.2 µM (inactive)
RXF 393
  GI50: 38.8 µM (inactive)
CAKI-1
  GI50: 63.7 µM (inactive)
MOLT-4
  GI50: 19.8 µM (inactive)
CCRF-CEM
  GI50: 23.7 µM (inactive)
IGROV-1
  GI50: 39.5 µM (inactive)
Hs-578T
  GI50: 25.1 µM (inactive)
COLO 205
  GI50: 90.2 µM (inactive)
LOX IMVI
  GI50: 39.3 µM (inactive)
EKVX
  GI50: 53.5 µM (inactive)
PC-3
  GI50: 36.6 µM (inactive)
HCT-116
  GI50: 38.5 µM (inactive)
MCF7
  GI50: 24.5 µM (inactive)
K562
  GI50: 57 µM (inactive)
HCC 2998
  GI50: 62.1 µM (inactive)
SNB-75
  GI50: 31.2 µM (inactive)
TK-10
  GI50: 87.3 µM (inactive)
UACC-257
  GI50: > 100 µM (inactive)
SK-MEL-28
  GI50: 61.1 µM (inactive)
MDA-MB-231
  GI50: > 100 µM (inactive)
SW-620
  GI50: 49.5 µM (inactive)
M14
  GI50: 55.2 µM (inactive)
ACHN
  GI50: 50.6 µM (inactive)
SF-539
  GI50: 32.4 µM (inactive)
SK-MEL-2
  GI50: 58.9 µM (inactive)
Malme-3M
  GI50: > 100 µM (inactive)
SK-OV-3
  GI50: 70.5 µM (inactive)
MDA-MB-435
  GI50: 65.9 µM (inactive)
SK-MEL-5
  GI50: 23.5 µM (inactive)
MDA-N
  GI50: 75 µM (inactive)
RPMI-8226
  GI50: 17.3 µM (inactive)
A549
  GI50: 41 µM (inactive)
HOP-92
  GI50: 74.6 µM (inactive)
NCI-H522
  GI50: 80.7 µM (inactive)
BT-549
  GI50: 33.9 µM (inactive)
OVCAR-8
  GI50: 72.3 µM (inactive)
OVCAR-5
  GI50: > 100 µM (inactive)
UACC-62
  GI50: 43.6 µM (inactive)
HOP-62
  GI50: 39.7 µM (inactive)
SF-268
  GI50: 56.6 µM (inactive)

## Cn1c(=O)sc2cc(C(=S)N3CCC(Cc4ccccc4)CC3)ccc21
SR
  GI50: 17.7 µM (inactive)
HT-29
  GI50: 62.1 µM (inactive)
U-251
  GI50: 16.2 µM (inactive)
HL-60
  GI50: 22.5 µM (inactive)
NCI-H226
  GI50: 15.3 µM (inactive)
SF-295
  GI50: 27.3 µM (inactive)
NCI/ADR-RES
  GI50: 21.4 µM (inactive)
KM12
  GI50: 34.7 µM (inactive)
HCT-15
  GI50: 99.5 µM
786-0
  GI50: > 100 µM (inactive)
A498
  GI50: > 100 µM (inactive)
SNB-19
  GI50: > 100 µM (inactive)
NCI-H460
  GI50: 27.8 µM (inactive)
SN12C
  GI50: > 100 µM (inactive)
RXF 393
  GI50: 21.6 µM (inactive)
CAKI-1
  GI50: 61.5 µM (inactive)
MOLT-4
  GI50: 20.9 µM (inactive)
CCRF-CEM
  GI50: 25.2 µM (inactive)
IGROV-1
  GI50: 33.8 µM (inactive)
Hs-578T
  GI50: 21.4 µM (inactive)
COLO 205
  GI50: 83.2 µM (inactive)
LOX IMVI
  GI50: 58.5 µM (inactive)
EKVX
  GI50: 9.42 µM (inactive)
PC-3
  GI50: 37.9 µM (inactive)
HCT-116
  GI50: 45.9 µM (inactive)
MCF7
  GI50: 41.7 µM (inactive)
K562
  GI50: 34.9 µM (inactive)
DU-145
  GI50: 84.5 µM (inactive)
TK-10
  GI50: > 100 µM (inactive)
UACC-257
  GI50: 38.3 µM (inactive)
SK-MEL-28
  GI50: 46.6 µM (inactive)
MDA-MB-231
  GI50: > 100 µM (inactive)
OVCAR-3
  GI50: 53.8 µM (inactive)
SW-620
  GI50: > 100 µM (inactive)
M14
  GI50: 33.3 µM (inactive)
ACHN
  GI50: > 100 µM (inactive)
SF-539
  GI50: > 100 µM (inactive)
SK-MEL-2
  GI50: > 100 µM (inactive)
SK-OV-3
  GI50: 58.5 µM (inactive)
NCI-H23
  GI50: 44.7 µM (inactive)
MDA-MB-435
  GI50: 27.5 µM (inactive)
SK-MEL-5
  GI50: 26.9 µM (inactive)
MDA-N
  GI50: 72.1 µM (inactive)
RPMI-8226
  GI50: 9.89 µM (inactive)
BT-549
  GI50: 30.3 µM (inactive)
OVCAR-8
  GI50: 20.1 µM (inactive)
OVCAR-5
  GI50: > 100 µM (inactive)
UACC-62
  GI50: 61.5 µM (inactive)
HOP-62
  GI50: > 100 µM (inactive)
SF-268
  GI50: 28.7 µM (inactive)
